Here are results for 20 compounds from the supplement of paper PMC7224384.

In experiment [1] the test system is MDA-MB-453. The experiment is described as follows: drug sensitivity score (DSS), in combination with BLU9931 (DSS (weighted AUC score)); higher = more sensitive (stronger viability decrease); extreme values may be limits of the assay. The following applies: BLU9931 100 nM; 72 h. Summed up:
(§1)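 Drug sensitivity scores come from a weighted area under a four-parameter logistic fit to percent viability, normalised per plate to control wells. Viability was based on cellular ATP read with CellTiterGlo 2.0 after 72 h at 37 °C, 5% CO2. Each 384-well plate carried FIMM Oncology set compounds in singlicate at five 10-fold dilutions, with 2000 MDA-MB-453 cells per well in medium with or without an FGFR4 inhibitor at 100 nM final.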

For experiment [2], the system named is MDA-MB-453. The experiment is described as follows: drug sensitivity score (DSS), single agent (DSS (weighted AUC score)); higher = more sensitive (stronger viability decrease); extreme values may be limits of the assay. The following applies: BLU9931 0 nM; 72 h. The method, boiled down: as §1

In the case of `O=C(Nc1ccc2[nH]nc(-c3ccncc3)c2c1)[C@@H]1CCN(CC(=O)N2CCN(c3ccc(-c4ncccn4)cc3)CC2)C1`, the drug sensitivity score in the experiment with MDA-MB-453 [1] was determined as 0; in the experiment on MDA-MB-453 [2] it was 3.4.
The like results for `COc1ccc(-c2ccc3ncc4c(c3c2)n(-c2ccc(N3CCNCC3)c(C(F)(F)F)c2)c(=O)n4C)cn1` [NVP-BGT226] were, in that order, 24.4 and 24.8.
In the case of `CC(O)c1cc(C(=O)N[C@@H](C)Cn2ccc(-c3ccc(C#N)c(Cl)c3)n2)n[nH]1` (stereo not given in full) [ODM-201], the drug sensitivity score with MDA-MB-453 [1] stood at 0.3; with MDA-MB-453 [2], 1.1.
In the same order, the values of `Nc1ccn([C@@H]2O[C@H](CO)[C@@H](O)[C@@H]2O)c(=O)n1` [Cytarabine] are 0.1 and 0.8.
In the same order, the values of `CC(=O)c1c(C)c2cnc(Nc3ccc(N4CCNCC4)cn3)nc2n(C2CCCC2)c1=O` [Palbociclib] are 4.8 and 2.5.
`Cc1ccc(-c2cc(C(F)(F)F)nn2-c2ccc(S(N)(=O)=O)cc2)cc1` [Celecoxib]: the values for the drug sensitivity score with MDA-MB-453 [1] and in the experiment on MDA-MB-453 [2] were 0 and 0.4, respectively.
In the same order, the values of `CS(=O)(=O)N1CCN(Cc2cc3nc(-c4cccc5[nH]ncc45)nc(N4CCOCC4)c3s2)CC1` [Pictilisib] are 17.4 and 16.6.
In the same order, the values of `CC(C)(C)C[C@@H]1N[C@@H](C(=O)N[C@H]2CC[C@H](O)CC2)[C@H](c2cccc(Cl)c2F)[C@]12C(=O)Nc1cc(Cl)ccc12` are 0 and 0.9.
In the case of `Cc1[nH]nc(C(F)(F)F)c1Cc1sc2c(c1C(=O)N1C[C@](C)(O)CO1)c(=O)n(C)c(=O)n2C(C)C` [AZD3965], the drug sensitivity score in the experiment with MDA-MB-453 [1] and in the experiment on MDA-MB-453 [2] was 0 each time.
In the case of `Cc1cc(Nc2cc(N3CCN(C)CC3)nc(Sc3ccc(NC(=O)C4CC4)cc3)n2)n[nH]1` [Tozasertib], the values for the drug sensitivity score in the experiment on MDA-MB-453 [1] and with MDA-MB-453 [2] were 0 and 2.5, respectively.
`Nc1cccc2c1CN(C1CCC(=O)NC1=O)C2=O` (stereo not given) [Lenalidomide]: the drug sensitivity score in the experiment on MDA-MB-453 [1] and with MDA-MB-453 [2] was 0 throughout.
Turning to `CS(=O)(=O)c1ccc(-c2cnc(N)c(C(=O)Nc3ccccc3)n2)cc1` [VE-821], the drug sensitivity score in the experiment on MDA-MB-453 [1] worked out at 4.7; in the experiment on MDA-MB-453 [2] it was 2.
In the same order, the values of `CN(CC(=O)N(Cc1ccc(C2CCCCC2)cc1)c1ccc(C(=O)O)cc1)S(=O)(=O)c1c(F)c(F)c(F)c(F)c1F` [SH-4-54] are 7.4 and 5.4.
In the same order, the values of `CS(=O)(=O)c1ccc(C(=O)Nc2ccc(Cl)c(-c3ccccn3)c2)c(Cl)c1` [Vismodegib] are 0 and 0.
In the same order, the values of `CC(=O)c1cnc2ccc(-c3cc(Cl)c(O)c(Cl)c3)nc2c1N[C@H]1CC[C@H](CN(C)C)CC1` [OTS167] are 15.9 and 17.4.
Take `NC[C@@](O)(c1ccc(Cl)cc1)c1ccc(-c2cn[nH]c2)cc1`: the values for the drug sensitivity score in the experiment with MDA-MB-453 [1] and with MDA-MB-453 [2] were 2.4 and 1.3, respectively.
In the same order, the values of `Cc1ccc(C(=O)Nc2ccc(Oc3cc4cnn(C)c4cc3-c3cn[nH]c3)c(F)c2)c(=O)n1-c1ccc(F)cc1` [Merestinib] are 0 and 0.
Take `C=CCn1c(=O)c2cnc(Nc3ccc(N4CCN(C)CC4)cc3)nc2n1-c1cccc(C(C)(C)O)n1` [AZD1775]: the drug sensitivity score with MDA-MB-453 [1] came out at 12.4; in the experiment on MDA-MB-453 [2], 13.7.
In the same order, the values of `Cc1ccc(C(=O)N(CCCN)[C@@H](c2oc3cc(Cl)ccc3c(=O)c2Cc2ccccc2)C(C)C)cc1` are 1.8 and 5.3.
In the same order, the values of `CN1CCN(c2ccc3nc(-c4c(N)c5c(F)cccc5[nH]c4=O)[nH]c3c2)CC1` [Dovitinib] are 0 and 0.
